Assay results: patent publication US7402697B2, “Antibacterial agents” (Idexx Laboratories Inc., priority 2004, dated 2008)
Values after ≈ are worked out from the molar mass of the structure shown. “Also recorded” adds a separate entry of the source. Values belong to the compound of their own block, whether it stands above or below them.

Key:
[1] = Serum concentration as a function of time after subcutaneous administration to dogs (HPLC); format: in vivo; conditions: for clearance of each isomer, serum concentration as percent of CmaxR or CmaxS as a function of time: 40 mg/kg of A2 as equimolar mixture of (R) and (S) acylamido configuration; for clearance rate: compared with NUFLOR®
Description: The pharmaceutical composition was then administered to dogs at a dose of 40 mg/kg. Blood samples were taken from the dog at various time points and serum separated using standard methods well known to those skilled in the art. The serum was then analyzed using HPLC according to the following procedure: A C18 Sep-Pak Plus® cartridge (Sep-Pak) (commercially available from Waters of Milford, Mass.) was rinsed with 5 mL of methanol followed by 5 mL of water and loaded with 1 mL of serum. After loading, the Sep-Pak was washed with 2 mL of water, 2 mL of 15% aqueous acetonitrile, and 3 mL of hexane. The Sep-Pak was then eluted with 4 mL of acetonitrile and the eluant collected. The acetonitrile was evaporated using a stream of nitrogen to provide a residue and the resulting residue was reconstituted with 1 mL of 25% aqueous acetonitrile to provide an assay solution. 50 μL of the assay solution was then analyzed by HPCL using high pressure liquid chromatography equipped with a Beckman Coulter Ultraphere C-18 5 μM×4.6 mm×250 mm analytical column eluted at a flow of 1.2 mL/min. using a gradient of water and acetonitrile according to the following profile: [table] The HPLC system was interfaced to a UV detector operated at 223 nm. […] The pharmaceutical composition was then administered to dogs subcutaneously at a a dose of 40 mg/kg. Blood samples were taken from the dogs at various time points and the blood samples treated as described above. The serum was then analyzed using the HPLC procedure described above. […] The pharmaceutical composition was then administered to dogs subcutaneously at a a dose of 40 mg/kg. Blood samples were taken from the dogs at various time points and the blood samples treated as described above. The serum was then analyzed using the HPLC procedure described above. […] The maximum serum level was determined for each isomer (CmaxR and CmaxS, respectively).

[2] = tested on: S. pyogenes; test: Minimum inhibitory concentration, disk diffusion susceptibility testing; format: cell-based
Description: (§1) The activity of a Fenicol Compound against a bacteria is determined using standard dilution tests. For example, the minimum inhibitory concentrations can be determined using the disk diffusion susceptibility testing method described in Clinical Microbiology Procedures Handbook, volume 1, edited by Henry D. Isenberg, American Society for Microbiology, 1992, section 5.1 or the well known method of Bauer et al. “Antibiotic Susceptibility Testing by a Standardized Single Disc Method,” Amer. J. Clin. Pathol., 45, p. 493-496.

[3] = tested on: E. faecalis; test: as above; format: cell-based
Description: as §1

[4] = tested on: E. coli; test: as above; format: cell-based; conditions: for Minimum Inhibitory Concentration: E. coli
Description: as §1

[5] = tested on: B. subtitis; test: as above; format: cell-based
Description: as §1

[6] = tested on: S. aureaus; test: as above; format: cell-based
Description: as §1

[7] = tested on: B. bronchoseptica; test: as above; format: cell-based
Description: as §1

[8] = tested on: K. pneumoniae; test: as above; format: cell-based
Description: as §1

SMILES: CC(Cl)C(=O)NC(CF)C(O)c1ccc(S(C)(=O)=O)cc1 (mixture of isomers) [E2 + I2 (Racemic Mixture)]
Minimum Inhibitory Concentration [7]: 3 µg/mL
Minimum Inhibitory Concentration [4]: 3 µg/mL
Minimum Inhibitory Concentration [5]: 0.5 µg/mL
Minimum Inhibitory Concentration [8]: 5 µg/mL
Minimum Inhibitory Concentration [6]: 2 µg/mL

SMILES: CC(F)C(=O)NC(CF)C(O)c1ccc(S(C)(=O)=O)cc1 (mixture of isomers) [E5 + I5 (Racemic Mixture)]
Minimum Inhibitory Concentration [2]: 5 µg/mL
Minimum Inhibitory Concentration [7]: >10 µg/mL
Minimum Inhibitory Concentration [3]: 3 µg/mL
Minimum Inhibitory Concentration [4]: 5 µg/mL
Minimum Inhibitory Concentration [5]: 1 µg/mL
Minimum Inhibitory Concentration [8]: 5 µg/mL
Minimum Inhibitory Concentration [6]: 5 µg/mL

SMILES: C[C@H](C(=O)N[C@H](CF)[C@H](O)c1ccc(S(C)(=O)=O)cc1)C(F)(F)F [A2 wherein the acylamido group has the (R) stereochemical co]
clearance of each isomer, serum concentration as percent of CmaxR or CmaxS as a function of time ([1]; 40 mg/kg): cleared more slowly

SMILES: CS(=O)(=O)c1ccc([C@@H](O)[C@@H](CF)NC(=O)CCl)cc1 [D-threo-2-chloro-N-[1-(fluoromethyl)-2-hydroxy-2-[4-methylsulfonyl)phenyl]ethyl]-acetamide]
Minimum Inhibitory Concentration [7]: 3 µg/mL
Minimum Inhibitory Concentration [4]: 3 µg/mL
Minimum Inhibitory Concentration [5]: 0.5 µg/mL
Minimum Inhibitory Concentration [8]: 5 µg/mL
Minimum Inhibitory Concentration [6]: 2 µg/mL

SMILES: CS(=O)(=O)c1ccc([C@@H](O)[C@@H](CF)NC(=O)C(Cl)Cl)cc1 [Fluorfenicol, reference compound]
maximum serum concentration ([1]; 40 mg/kg): less than 0.8 μg/mL
MIC ([2]; Streptococcus pyogenes): 1 µg/mL (≈ 2.79 µM)
MIC [7]: 1 µg/mL (≈ 2.79 µM)
MIC ([3]; Enterococcus faecalis): 3 µg/mL (≈ 8.37 µM)
MIC ([4]; Escherichia coli, read-out: Minimum Inhibitory Concentration): 1 µg/mL (≈ 2.79 µM)
MIC [5]: 1 µg/mL (≈ 2.79 µM)
MIC ([8]; Klebsiella pneumoniae): 3 µg/mL (≈ 8.37 µM)
MIC [6]: 1 µg/mL (≈ 2.79 µM)

Further lines, with some results ahead:

clearance of each isomer, serum concentration as percent of CmaxR or CmaxS as a function of time [1]: decreases rapidly
SMILES: C[C@@H](C(=O)N[C@H](CF)[C@H](O)c1ccc(S(C)(=O)=O)cc1)C(F)(F)F

maximum serum concentration ([1]; 40 mg/kg): ~5 µg/mL
serum concentration compared with NUFLOR® ([1]; 40 mg/kg): much higher serum concentration
SMILES: CC(C(=O)NC(CF)C(O)c1ccc(S(C)(=O)=O)cc1)C(F)(F)F (mixture of isomers) [A2]
clearance rate ([1]; 40 mg/kg): much slower than the clearance rate of NUFLOR®; also recorded: cleared more slowly than is NUFLOR®
Minimum Inhibitory Concentration [2]: 5 µg/mL
Minimum Inhibitory Concentration [3]: 5 µg/mL
Minimum Inhibitory Concentration [4]: 7 µg/mL
Minimum Inhibitory Concentration [5]: 5 µg/mL
Minimum Inhibitory Concentration [6]: 7 µg/mL

maximum serum concentration ([1]; 40 mg/kg): ~7 µg/mL
serum concentration compared with NUFLOR® ([1]; 40 mg/kg): higher serum concentration than NUFLOR®
SMILES: CC(C)C(=O)N[C@H](CF)[C@H](O)c1ccc(S(C)(=O)=O)cc1 [A1]
clearance rate ([1]; 40 mg/kg): cleared much more slowly; also recorded: cleared more slowly than NUFLOR®
Minimum Inhibitory Concentration [2]: 5 µg/mL
Minimum Inhibitory Concentration [4]: 5 µg/mL
Minimum Inhibitory Concentration [5]: 2 µg/mL
Minimum Inhibitory Concentration [6]: 3 µg/mL

clearance of each isomer, serum concentration as percent of CmaxR or CmaxS as a function of time ([1]; 40 mg/kg): decreases much more slowly
SMILES: C[C@H](C(=O)N[C@H](CF)[C@H](O)c1ccc(S(C)(=O)=O)cc1)C(F)(F)F [A2 wherein the acylamido group is present in the (R) stereoc]
